Assay [1] deals with Onchocerca gutturosa. The assay is described as follows: Activity against Onchocerca gutturosa assessed by motility (parasites, medium, serum, cells and test drugs). Further details: reduction of motility: concentration or dose not given beside the values. The following applies: with cells. In kind it is cell-based. The method, then: Testing in vitro against Onchocerca gutturosa is a valid model for activity against Onchocerca volvulus.
(§1) Testing of test drugs (Compounds 1, 2, 3, 4, 5, 7, 8, 9, 11, and 12 of Table 1 ) against the parasitic worms Onchocerca gutturosa was carried out in accordance with the method described in J Helminth (1987) 60, 271, firstly using parasites, medium, serum, cells and test drugs.

Assay [2] concerns T. gondii. The assay is described as follows: Activity against T. gondii within HeLa cells, assessed by light microscopy. It counts as cell-based, Toxoplasma gondii (in HeLa (ATCC CCL2) cells). Conditions: for Mean T. gondii per infected vacuole: HeLa (no drug: 8.1); for % infected cells: HeLa (no drug: 49); for T. gondii per 100 cells: HeLa (no drug: 620); for block of parasite growth: in words, HeLa cells. The method, then: Confluent epithelium-like HeLa (ATCC CCL2) cell monolayers growing on 6-well plastic multidish (9.6 cm^2, Nunc, Roskilde, Denmark) were used. After washing with HBSS, the monolayers were infected with 3×10^6 ml^-1 T. gondii in M199-3% FCS (total amount per well, 3 ml) for 1 h, washed twice with HBSS, and the drugs were added with M199-10% FCS over 22 h. Monolayers were then fixed, Giemsa-stained and-assessed by light microscopy.

The subject of assay [3] is T. gondii. The assay is described as follows: Activity against T. gondii within macrophages, assessed by light microscopy. In kind it is cell-based, Toxoplasma gondii (in murine peritoneal macrophages). Also on record: % infected cells / Mean T. gondii per infected vacuole / T. gondii per 100 cells: dose or concentration left out as unconfirmed. Conditions: for Mean T. gondii per infected vacuole: macrophages (no drug: 4.3); for % infected cells: macrophages (no drug: 42); for T. gondii per 100 cells: macrophages (no drug: 191); for activity compared with pyrimethamine and pyrimethamine + sulfadiazine / inhibition of the intracellular growth of toxoplasma: in words, at respective IC90 values. Here is the method: Unelicited murine peritoneal macrophages obtained by washing the peritoneal cavities of Swiss-Webster mice with 3 ml of Hanks' Balanced Salt Solution (HBSS) (4° C.) containing 5 U ml of heparin were purified by centrifugation in Ficoll-Paque (Pharmacia) 500×g for 15 min, pooled and suspended in medium 199 (M199) containing 10% heat-inactivated (56° C. for 60 min) fetal calf serum (FCS). An amount of […] was seeded into each well of 96-well dishes (Costar) and allowed to adhere during 2-3 h at 37° C. in an 5% CO2 -95% air atmosphere. The nonadherent cells were removed by washing twice with prewarmed HBSS and challenged with 3 ×10 tachyzoites of the RG strain of […] in M199-3% FCS for 1 h. After washing twice with HBSS, the infected monolayers received the test drugs (Compounds 1 to 10 of Table 1) at various concentrations in M199-10% FCS. The monolayers were then pulsed with […] of [3H]uracil (Amersham) during a period of 18 h. The acid-precipitable radioactivity on each well was counted by using a filtration procedure and the IC90 was calculated by probit analysis.
2×10^6 of the macrophage cells were seeded into each chamber of four-chamber glass slides (Lab-Tek). After removing nonadherent cells with HBSS, the monolayers were infected with 2×10^6 T. gondii for 1 h followed by addition of the drugs with the media over 18 h. Monolayers were fixed with 0.4% 9-aminoacridine (50% ethanol-water vol/vol), Giemsa-stained, and assessed by light microscopy. The results are shown in the following Table 6, including results of control compounds: […]

In assay [4] the test system is Onchocerca gutturosa. The assay is described as follows: Activity against Onchocerca gutturosa assessed by motility (parasites, medium and drug). In kind it is cell-based. The following applies: for motility / effect on worm motility: without cells; for effect on worm motility: in words. The method, then:
as §1
Secondly, test drugs (Compounds 2, 3, 4, 7,. 8, 9 and 12 of Table 1) were tested using parasites, medium and drug. […] Under these conditions, commercial anti-helminthic drugs and artemisinin also cut motility by some 30-40%.

For assay [5], the system named is in vitro mitogenic assay; mixed lymphocyte reaction. The assay is described as follows: Immunomodulatory activity (in vitro mitogenic assay; mixed lymphocyte reaction). It counts as cell-based. Conditions: in words. The method, then:
Several of the compounds mentioned in Examples 1 to 17 were also tested for immunomodulatory activity (in vitro mitogenic assay; mixed lymphocyte reaction).

Assay [6] deals with Onchocerca gutturosa. The assay is described as follows: Activity against Onchocerca gutturosa, tetrazolium colorimetric test (parasites, medium, cells and test drug). In kind it is cell-based. The following applies: with cells; for inhibition at 50 µM: Onchocerca gutturosa, 5×10^-5 M, read-out: inhibition of formazan formation. The method, then: (§2) A suitable colorimetric assay uses formation of formazan, a blue dye, from tetrazolium cation generated by 3-[…] bromide (J Helminth (1987) 60, 271). Firstly, Compounds 1, 2, 4, 5, 7, 8, 9, 11 and 12, along with artemisinin and arteether were tested using parasites, medium, cells and test drug.

The subject of assay [7] is Onchocerca gutturosa. The assay is described as follows: Activity against Onchocerca gutturosa, tetrazolium colorimetric test (parasites, medium and test drugs). It counts as cell-based. Conditions: without cells. Here is the method:
as §2
Secondly, Compounds 2, 3, 4, 7, 8, 9, and 12, artemisinin and arteether were tested using parasites, medium and test drugs.

The subject of assay [8] is chloroquine-resistant strains of P. falciparum. The following applies: in words; background, Science 228, 1049 (1985); cited from earlier work.
Setting [9] is: in words, 7 days, after an induction period.
Where [10] appears, read: in words, two to three days exposure.

With `C1=C(c2ccccc2)C[C@@]2(c3ccccc3)OOC3(CCCC3)O[C@@H]12` (relative stereo) [Compound 1 (Table 4)], in the assay on Onchocerca gutturosa [1] (after 7 days), the reduction of motility was found to be 100%. Moreover, the “effect on worm motility” value in the assay with Onchocerca gutturosa [1] (setting [9]) is on record as “completely stopped morality”. Also, in the assay on T. gondii [2] (6.8 mg ml^-1, 22 h), the “Mean T. gondii per infected vacuole” value is 1.8, the “% infected cells” value is on record as 23% and the “T. gondii per 100 cells” value is reported as 46. For the same compound, in the assay on T. gondii [2], the “block of parasite growth” value is given as “able to block parasite growth”. In addition, in the assay on T. gondii [3] (6.8, 18 h), the “Mean T. gondii per infected vacuole” value is 1.6, the “% infected cells” value worked out at 19% and the “T. gondii per 100 cells” value amounted to 38. In the assay on T. gondii [3], the “activity compared with pyrimethamine and pyrimethamine + sulfadiazine” value was “comparable to that of pyrimethamine, and pyrimethamine in combination with sulfadiazine”; the “inhibition of the intracellular growth of toxoplasma” value (shortened to “inhibition … of toxoplasma”) is given as “confirmed the inhibition of the intracellular growth of toxoplasma”.

In the assay on Onchocerca gutturosa [1] (after 7 days), `C1=C(c2ccccc2)C[C@@]2(c3ccccc3)OOC3(CCSCC3)O[C@@H]12` (relative stereo) [Compound 2 (Table 4)] showed a reduction of motility of 100%. Further, the “effect on worm motility” value with Onchocerca gutturosa [1] (setting [10]) is on record as “markedly inhibitory”. In the assay with T. gondii [2] (5.3 mg ml^-1, 22 h), the “Mean T. gondii per infected vacuole” value came to 1.3, the “% infected cells” value is recorded as 23% and the “T. gondii per 100 cells” value is 38. Also, the “block of parasite growth” value with T. gondii [2] is given as “able to block parasite growth”. The motility entry in the assay on Onchocerca gutturosa [4] (after 2-3 days) is reported as “less than 1”. Moreover, in the assay on T. gondii [3] (5.3, 18 h), the “Mean T. gondii per infected vacuole” value is 1.2, the “% infected cells” value is listed as 14% and the “T. gondii per 100 cells” value is recorded as 35. In the assay on T. gondii [3], the “activity compared with pyrimethamine and pyrimethamine + sulfadiazine” value is “comparable to that of pyrimethamine, and pyrimethamine in combination with sulfadiazine”; the “inhibition … of toxoplasma” value is given as “confirmed the inhibition of the intracellular growth of toxoplasma”.

Consider `C1=C(c2ccccc2)C[C@@]2(c3ccccc3)OOC3(CCOCC3)O[C@@H]12` (relative stereo) [Compound 3 (Table 4)], for which the “effectiveness in the motility test” value in the assay on Onchocerca gutturosa [1] (in words, overall) is reported as “not so effective”. Further, the “effect on worm motility” value with Onchocerca gutturosa [4] (after 2-3 days) is on record as “performed poorly”.

As for `O=C1CCC2(CC1)OO[C@]1(c3ccccc3)CC(c3ccccc3)=C[C@@H]1O2` (relative stereo) [Compound 4 (Table 4)], in the assay on Onchocerca gutturosa [1] (after 7 days), the reduction of motility amounted to 100%. The “effect on worm motility” value in the assay on Onchocerca gutturosa [1] (in words, one day exposure) is recorded as “significantly effective”; in the assay on Onchocerca gutturosa [4] (after one day), “immediate response”.

As to `CC1(C)OO[C@]2(c3ccccc3)CC(c3ccccc3)=C[C@@H]2O1` (relative stereo) [Compound 5 (Table 4)], the reduction of motility in the assay on Onchocerca gutturosa [1] (after 7 days) is 100%. In the assay with Onchocerca gutturosa [1] (in words, one day exposure), the “effect on worm motility” value is “significantly effective”.

Regarding `O=C1C(c2ccccc2)=C[C@@]2(c3ccccc3)OOC3(CCCCC3)O[C@@H]12` (relative stereo) [Compound 6 (Table 4)], in the assay on T. gondii [3] (54, 18 h), the “Mean T. gondii per infected vacuole” value worked out at 1.9, the “% infected cells” value came to 20% and the “T. gondii per 100 cells” value is on record as 43. Also, in the assay with T. gondii [3], the “activity compared with pyrimethamine and pyrimethamine + sulfadiazine” value is “comparable to that of pyrimethamine, and pyrimethamine in combination with sulfadiazine”; the “inhibition … of toxoplasma” value was “confirmed the inhibition of the intracellular growth of toxoplasma”.

Take `CC1(C)OO[C@@]2(c3ccc(Cl)cc3)CC(c3ccc(Cl)cc3)=C[C@H]2O1` (relative stereo) [Compound 6]: in assay [5], the immunomodulatory activity result is reported as “most important activity”.

For `O[C@@H]1C(c2ccccc2)=C[C@@]2(c3ccccc3)OOC3(CCOCC3)O[C@@H]12` (relative stereo) [Compound 7 (Table 4)], in the assay with Onchocerca gutturosa [1] (after 7 days), the reduction of motility turned out to be 100%. The “effect on worm motility” value in the assay with Onchocerca gutturosa [1] (setting [9]) is reported as “completely stopped morality”. In addition, the motility result in the assay on Onchocerca gutturosa [4] (after 2-3 days) was “less than 1”.

`O[C@@H]1C(c2ccccc2)=C[C@@]2(c3ccccc3)OOC3(CCCC3)O[C@@H]12` (relative stereo) [Compound 8 (Table 4)]: the reduction of motility in the assay on Onchocerca gutturosa [1] (after 7 days) stood at 100%. Further, the “effect on worm motility” value is recorded as “markedly inhibitory” in the assay with Onchocerca gutturosa [1] (setting [10]) and “immediate response” in the assay with Onchocerca gutturosa [4] (after one day).

Compound `O[C@@H]1C(c2ccccc2)=C[C@@]2(c3ccccc3)OOC3(CCCCC3)O[C@@H]12` (relative stereo) [Compound 9 (Table 4)] returned a reduction of motility in the assay on Onchocerca gutturosa [1] (after 7 days) of 100%. In addition, the “effect on worm motility” value in the assay on Onchocerca gutturosa [1] (in words, one day exposure) is “immediately immobilized worms in less than a day”; in the assay with Onchocerca gutturosa [1] (setting [10]), “markedly inhibitory”; in the assay on Onchocerca gutturosa [4] (after one day), “immediate response”. Also, the inhibition at 50 µM with Onchocerca gutturosa [6] is greater than 90%.

In the case of `Cc1ccc(C2=C[C@@]3(c4ccc(C)cc4)OOC4(CCCCC4)O[C@H]3C2=O)cc1` (relative stereo) [Compound 11 (Table 4)], the reduction of motility in the assay on Onchocerca gutturosa [1] (after 7 days) is 100%. The “effect on worm motility” value in the assay with Onchocerca gutturosa [1] (in words, one day exposure) is on record as “significantly effective”. Further, in the assay on Onchocerca gutturosa [6], the inhibition at 50 µM is greater than 90%.

With `CC1(C)OO[C@]2(c3ccccc3)CCC(c3ccccc3)=C[C@@H]2O1` (relative stereo) [Compound 12 (Table 4)], in the assay on Onchocerca gutturosa [1] (after 7 days), the reduction of motility is recorded as 100%. In the assay with Onchocerca gutturosa [1] (setting [10]), the “effect on worm motility” value was “markedly inhibitory”. Moreover, in the assay on Onchocerca gutturosa [4] (after 2-3 days), the motility entry is “less than 1”. Besides, the inhibition at 50 µM in the assay with Onchocerca gutturosa [6] was greater than 90%.

On to `C1=C(c2ccccc2)C[C@]2(c3ccccc3)OOC3(CCOCC3)O[C@H]12` (relative stereo) [Compound 12], for which, in assay [5], the immunomodulatory activity entry is recorded as “most important activity”.

Consider `CCc1nc(N)nc(N)c1-c1ccc(Cl)cc1` [P, pyrimethamine, reference compound], for which, in the assay on T. gondii [3] (1, 18 h), the “Mean T. gondii per infected vacuole” value was 1.2, the “% infected cells” value is listed as 14% and the “T. gondii per 100 cells” value amounted to 33.

For `CCO[C@H]1O[C@@H]2O[C@@]3(C)CC[C@H]4[C@H](C)CC[C@@H]([C@H]1C)[C@@]24OO3` [arteether, reference compound], the reduction of motility in the assay with Onchocerca gutturosa [1] (after a day, 1440 min) stood at 30%. For the same compound, the figures for the motility in the assay on Onchocerca gutturosa [4] (after 4 days) and in the assay on Onchocerca gutturosa [4] (after 7 days) were 4 and 2, respectively. Further, the “inhibition of formazan formation” value is given as “ineffective” in the assay on Onchocerca gutturosa [7] (in words) and “about 40%” in the assay on Onchocerca gutturosa [6].

For `C[C@@H]1CC[C@H]2[C@@H](C)C(=O)O[C@@H]3O[C@@]4(C)CC[C@@H]1[C@]32OO4` [artemisinin, reference compound], the “effect on worm motility” value with Onchocerca gutturosa [1] (in words, one day exposure) is “ineffective”. In the assay with Onchocerca gutturosa [4] (without cells ("under these conditions")), the reduction of motility is 30-40%. In addition, the “activity of Qinghaosu against chloroquine-resistant strains” value in assay [8] is “remarkably active”. Also, the “inhibition of formazan formation” value in the assay on Onchocerca gutturosa [7] is “about 25%”; in the assay with Onchocerca gutturosa [6] (in words), “ineffective”.

These data come from patent US5559145A, “1,2,4-trioxane derivatives” (priority 1995, dated 1996).
